Patent US4865619A, “Use, as a coupler, of 2,4-diamino-1,3-dimethoxybenzene or one of its salts, in combination with oxidation dye precursors, for dyeing human hair, hair dyeing composition containing the said coupler and process for preparing the said coupler” (L'Oreal, priority 1987, dated 1989)

What was measured:
[1] = mutagenicity (coupler stated to be nonmutagenic)
[2] = coloration of hair by the coupler in combination with oxidation dye precursors, oxidizing alkaline medium; design: species or system human
Experimental: According to this process, the dyeing composition described above is mixed at the time of use with a sufficient quantity of an oxidizing solution, and the mixture obtained is then applied on the hair.
The oxidizing solution contains oxidizing agents such as hydrogen peroxide, urea peroxide or persalts such as ammonium persulphate. "20 volumes" hydrogen peroxide solution is preferably used.
The mixture obtained is applied on the hair; it is left in place for 10 to 40 minutes, preferably 15 to 30 minutes, after which the hair is rinsed, washed with shampoo, rinsed again and dried.

## COc1ccc(N)c(OC)c1N [2,4-diamino-1,3-dimethoxybenzene]
[1]
  mutagenicity: nonmutagenic
[2]; para-aminophenols, after development in the presence of an oxidizing agent
  stability of the hues to light, inclement weather and washing: especially stable to light, to inclement weather and to washing
[2]; red colorations, in combination with p-aminophenols, oxidizing alkaline medium
  stability of the colorations: good stability
